Measurements published in patent US20150025012A1, “METHODS AND COMPOSITIONS FOR IDENTIFICATION, ASSESSMENT AND TREATMENT OF CANCERS ASSOCIATED WITH HEDGEHOG SIGNALING” (Infinity Pharmaceuticals, Inc., priority 2010, published 2015).

Columns and labels:
murine Gli1 = experiment: Gli1 mRNA in sorted stromal cell fractions of tumors; format: in vivo; details: Lin+/Lin- and CD31+/CD31- fractions; IPI-926 40 mg/kg 24 hours prior to sacrifice
Excerpt: Since tumor-associated stroma is a complex mixture of different cell types, further experiments have been carried out to determine the identity of the IPI-926-responsive cells. Tumors were obtained from animals treated or untreated with IPI-926 and the cells from within the tumors were subsequently fractionated in the following manner. First, the human cancer cells were removed from the mixture using magnetic beads that were coated with an antibody against the cell surface marker, Ep-CAM. Those cells that remained were the murine stromal cells associated with that tumor. Next, these stromal cells were subsequently separated based on their expression of cell surface markers known to be associated with specific cell lineages. In one sample set, cells were separated based on their expression of a panel of markers specific for cells of the hematopoietic lineage. These cells can be referred to as either Lin− or Lin+. […]
Cells used for sorting experiments were obtained by the following procedure. […] After this incubation, the cells in the flow through and the column were then analyzed for their expression of specific mRNAs by RT-PCR.
RNA for analysis was isolated from cell pellets or tumor tissue using the Ambion RNA 4-PCR isolation kit according to the manufacturer's guidance. […] Relative quantification of the expression data was obtained using the ΔΔCT method as described by Applied Biosystems.

SHh signaling = SHh signaling in pericytic C3H10T1/2 cell cultures (qRT-PCR); format: cell-based, Mouse; details: pericytic C3H10T1/2 cells, SHh plus IPI-926
Method: To test this, a model of pericyte cell differentiation, the C3H10T1/2 cells was evaluated. C3H10T1/2 cells were differentiated in vitro into pericytes. C3H10T1/2 cells are believed to be pluripotent mesenchymal cells, which can be induced to differentiate into multiple different cell lineages, including myoblasts, adipocytes, osteoblasts and pericytes (Taylor, et al. (1979) Cell 17(4):771-9). In this case, cells are cultured to confluence and then allowed to differentiate over the course of 5 additional days of culture. At this time, the cells are seen to express high levels of CD13, an established marker of pericytes.
We subsequently explored if SHh signaling was intact in these pericyte cultures. In a typical experiment, confluent C3H10T1/2 cells were allowed to differentiate into pericyte-like cells. After 5 days in culture, SHh with or without IPI-926 were added to the cells in the presence of normal serum. On day 8 of culture, cells were re-fed SHh with or without IPI-926 and shifter to low serum. qRT-PCR analysis was performed on day 9. SHh signaling was detected in these cells as measured by Gli1 mRNA upregulation; the SHh signaling was inhibited by IPI-926 (FIG. 28). Cells were treated on day 8; Gli1 mRNA levels were evaluated in control samples, after SHh addition, after SHh and IPI-926 and cells treated with IPI-926 alone as shown in FIG. 28. […]

tumor stroma = experiment: Microvascular density (CD31 IHC) in tumor; format: in vivo; details: after treatment with IPI-926
[1] = tested on: human cell lines derived from patients with cancer; details: pancreatic cancer, medulloblastoma, lung cancer, multiple myeloma, leukemias, lymphomas; cited from earlier work
Hedgehog pathway = details: after single administration; cited from earlier work

For `CC1=C2C[C@H]3[C@@H](CC[C@@H]4C[C@H](NS(C)(=O)=O)CC[C@@]43C)[C@@H]2CC[C@@]2(C1)O[C@@H]1C[C@H](C)CN[C@H]1[C@H]2C` [IPI-926], the “murine Gli1 inhibition in stromal cell fractions” value (murine Gli1) was “greatest degree of murine Gli1 inhibition was present in both the Lin-population and CD31-population”, the “SHh-induced Gli1 mRNA upregulation” value (SHh signaling) was “inhibited” and the “SHh-induced downregulation of RGS5 mRNA” value (SHh signaling) was “reversed”. For the same molecule, the “microvascular density (MVD, CD31 IHC)” value (tumor stroma) was “increased”, the “in vitro growth of human cell lines” value [1] was “inhibit” and the “Hedgehog pathway inhibition in stromal cells” value (Hedgehog pathway) was “rapid and sustained Hedgehog pathway inhibition”.
